In US8193238B2, “Inhibition of microtubule protrusion in cancer cells” (University of Maryland, Baltimore, priority 2006, dated 2012):

Experiments:
MCF10A cells [1] = assay: Chemical inhibition of Latrunculin-A-enhanced microtubule protrusions in suspended cells; assay type: cell-based, human; settings: MCF10A in suspension, then LA 5 μM one hour; sodium orthovanadate 1 mM, S-Trityl-L-Cysteine 100 μM, TDZD-8 20 μM
Experimental: MCF10A cells were placed into suspension in the presence of the indicated chemical inhibitors targeted at specific signaling pathways or the corresponding vehicle controls. Cells were then treated with the actin polymerization inhibitor, Latrunculin-A (LA, 5 μM) for one hour to enhance protrusions. […] Thus, protrusions can be reduced by chemical inhibition of specific signaling proteins.

microtentacles = assay: Microtentacle frequency after pretreatment with Okadaic Acid or Calyculin-A; assay type: cell-based; settings: pretreated 1 h, suspended with or without Latrunculin-A
Experimental: In FIG. 35, cells were pretreated for 1 h with DMEM media alone (Control) or the indicated concentrations of either Okadaic Acid (OKA) […] or Calyculin-A (Cal-A) to promote vimentin disassembly. Cells were then suspended by trypsinization with or without addition of Latrunculin-A (LA) to enhance microtentacle frequency.

EpH4 cells = assay: Protrusions in suspended cells treated with cytoskeletal inhibitors (EpH4); assay type: cell-based, mouse; settings: EpH4, 15 minutes of suspension; Latrunculin-A 5 μM, Colchicine 1 μM
Experimental: (§1) In FIG. 2A, after 15 minutes of suspension, protrusions in EpH4 and MCF10A cells are quite small (Control, white arrows). […] In FIG. 2B, populations of live, suspended cells were scored blindly for two or more protrusions longer than the cell radius. Each bar represents the mean+S.D. for three experiments in which at least 100 single cells were counted.
EpH4 cells were suspended in either DMEM (Control) or media containing 5 μM Latrunculin-A (LA), 1 μM Colchicine or the combination of both drugs for 30 minutes. Cells were then spun onto glass coverslips and fluorescently stained for α-tubulin (green) and polymerized actin (red). Protrusions that are difficult to see by phase contrast are easily discernible with immunostaining for α-tubulin (white arrows). Protrusions contain little polymerized actin, except at points of concentration, which are often at the end (arrowhead).
EpH4 and B19 cells were suspended over 2% agarose coated plates to prevent attachment in either serum-free DMEM or media containing. Latrunculin-A (5 μM) to enhance protrusions. For co-staining of α-tubulin and actin, suspended cells were then centrifuged onto poly-L-lysine coated coverslips (280 g×5 min), fixed in 3.7% formaldehyde in PBS for 10 min, and permeablized with 0.1% Triton X-100 in PBS. Adhered cells were then stained for 1 hr at room temperature using FITC-conjugated anti-α-tubulin (1:200; Sigma), Alexa-594 phalloidin (1:100; Molecular Probes), and Hoescht 33342 (1:5000; Sigma).
(§2) In order to initially characterize the cytoskeletal mechanism underlying these protrusions, suspended cells were treated with inhibitors of actin and tubulin polymerization (FIG. 2). After 15 minutes of suspension, the protrusions in untreated EpH4 or MCF10A cells remain fairly short (FIG. 2, white arrows). These early protrusions can often be difficult to detect with phase-contrast microscopy, due to interfering light refraction from the plasma membrane. […] Protrusions were more easily visible with immunofluorescence than phase contrast microscopy (FIG. 3, white arrows). Although actin filament staining was generally low along the length of the protrusion, dense points of actin were often found at the end of protrusions (FIG. 3, arrowheads).

EpH4-Bcl2 cells [2] = assay: Cell-cell attachment assay; assay type: cell-based, mouse; settings: EpH4-Bcl2 in 0.3% methylcellulose over agarose, 5 hours
Experimental: (§3) In FIG. 6A, EpH4-Bcl2 cells were suspended over agarose and treated with inhibitors as above. Following treatment, cells were plated into 0.3% methylcellulose media over agarose and the rate of cell-cell attachment was followed by Hoescht DNA staining. […] Similar results were found in three independent experiments. In FIG. 6B, EpH4-Bcl2 cells suspended over agarose for one hour in DMEM or DMEM containing LA (5 μM), Colchicine (1 μM), or the combination. Reattachment of these cells to either uncoated tissue culture plates or those pre-coated with laminin was followed by XTT cell viability assay. Values represent mean+S.D. of raw XTT values of three separate experiments.
B19 cells were seeded onto 10 cm dishes until 80% confluency. The media was aspirated and cells were incubated in fresh growth media containing Hoescht 33342 (1:5000) for 30 min at 37° C. to label all attached cells. The cells were washed twice in PBS, detached by trypsinization, and an equivalent number of cells were resuspended in serum-free media containing 0.3% methylcellulose with either 5 μM Latrunculin A, 100 μM Colchicine, 1 μg/ml vinblastine, or 5 μg/ml nocodazole and plated over 2% agarose-coated 24-well plates. The progression of cell-cell adhesion over time was visualized by the EpiChemi3 Imaging System (UVP, Inc.; Upland, Calif.) using an excitation wavelength of 365 nm and a blue band pass filter. Images were obtained with an attached Hamamatsu CCD camera (Hamamatsu Photonics, Hamamatsu City, Japan) and analyzed with UVP Labworks Image Acquisition and Analysis Software v. 4.6.
(§4) To determine if these microtubule protrusions influence the ability of cells to form attachments, the cells were treated with inhibitors of actin or tubulin polymerization and assessed both cell-cell and cell-substratum attachment (FIG. 6). […] Induction of such nonspecific attachment activity in detached mammary epithelial cells could promote tumor cell dissemination, particularly when apoptotic resistance allows this response to continue for extended periods.

MCF10A cells [3] = assay: Protrusions in suspended cells treated with cytoskeletal inhibitors (MCF10A); assay type: cell-based, human; settings: MCF10A, 15 minutes of suspension; Latrunculin-A 5 μM, Colchicine 1 μM
Experimental: as §1, §2
The nontumorigenic human mammary epithelial cell line (MCF10A) or the indicated human breast tumor cell lines were grown in suspension for 30-60 minutes, and protrusions were counted in random fields with phase-contrast microscopy. Values represent the mean±S.D. of three experiments in which at least 100 cells were counted. […] This effect was most apparent in the highly metastatic but exemplary Bt-474 and MDA-MB-231 cells (pictured, black arrows). The exemplary MCF10A cells show far fewer and shorter protrusions at the same time point (pictured, white arrows). Such protrusions are not observed in attached cells.

[4] = tested on: detached mammary epithelial cells; assay: Protrusions of detached mammary epithelial cells, general statements; assay type: cell-based, human and mouse
Experimental: Time-lapse video microscopy of detached mammary epithelial cells detected the extension of long, dynamic protrusions of the plasma membrane, and the present inventors have characterized the cytoskeletal mechanism underlying this novel observation. […] This response may be relatively short-lived, in specific embodiments, since mammary epithelial cells die by apoptosis within about 24 hours in suspension. However, cell lines that resist apoptosis through expression of either Bcl-2 or Bcl-xL will persistently form protrusions. Previous studies by the inventors indicate that such apoptotically-resistant cell lines will not form tumors in mice and lie dormant in distant tissues, in specific embodiments of the invention. […] These microtubule processes can extend more than 3 times the cell diameter, and undergo a rapid probing motion more than once per second. Formation of these microtubule protrusions is necessary for efficient cell-cell and cell-substratum attachment. In particular embodiments of the invention, this inherent microtubule response in detached mammary epithelial cells provides at least some of the invasive characteristics of breast cancer, independent of any tumor-specific genetic alteration, for example.
Breast tumor cells enter the bloodstream long before the development of clinically evident metastasis. However, the early presence of such bloodborne cells predicts poor patient outcome. Nearly 90% of human breast tumors arise as carcinomas from mammary epithelial cells, so it is important to characterize how these cells respond to the detached conditions that they would experience in the bloodstream. In the present invention, mammary epithelial cell lines produce long and dynamic protrusions of the plasma membrane when detached. Although human and mouse mammary epithelial cell lines die by apoptosis within 16 hours of detachment, this protrusive response persists for days in cells overexpressing either Bcl-2 or Bcl-xL, for example. […] Since bloodborne metastasis depends on both cell-cell and cell-matrix attachment, microtubule-based protrusions in detached mammary epithelial cells provide a novel target that could influence the metastatic spread of breast tumors.
Detachment-induced increases in Glu-tubulin could promote plasma membrane protrusions of microtubules by preventing efficient capture at the actin cortex. […] Therefore, our current model is that detachment increases stabilized microtubules enriched in Glu-tubulin, while decreased actin polymerization simply promotes extension of these microtubule protrusions.

EpH4-Bcl2 cells [5] = assay: Cell-substratum attachment assay; assay type: cell-based, mouse; settings: for attachment of cells to tissue culture surfaces: EpH4-Bcl2 (B19), 1 hr in suspension with inhibitor, then replated
Experimental: as §3
Equivalent numbers of B19 cells were suspended over 6-well plates coated in 2% agarose in serum-free media containing 5 μM Latrunculin-A (LA; BioMol, Plymouth Meeting, Pa.), 100 μM colchicine (Col; Sigma, St. Louis, Mo.), 5 μg/ml nocodazole (Noc), or 1 μg/ml vinblastine (VinB; Sigma) for a duration of 1 hr at 37° C. Cells were collected by centrifugation (1000 rpm×5 min) and drug containing media was aspirated. Cells were resuspended in EpH4 serum-containing growth media and aliquoted out into 24 wells (8 timepoints×3 replicates) of a 96-well clear bottom black plate. After plating, cells were allowed to attach for duration of 15 min, 45 min, 1.5 hr, 2 hr, 3 hr, 4 hr, 5 hr, and 24 hr at which point the media was aspirated from the replicate wells, washed twice in PBS, and fresh growth media was replaced at each timepoint. After 24 hr, all wells were aspirated and cells were incubated in growth media containing Hoescht 33342 (1:5000) for 30 min at 37° C. to label all attached cells. Fluorescence was measured using a Biotek Synergy HT Multi-Detection Microplate Reader (Winooski, Vt.) at excitation wavelength 360 nm and an emission filter of 460 nm followed by subsequent analysis using the KC4 Data Analysis software. The percentage of cell attachment for each treatment exposure was calculated as the RFU at each timepoint divided by the RFU at 24 h (maximum attachment). The standard deviations of triplicates at each timepoint are shown.
as §4

MDA-231 = assay: GFP-membrane protrusion counts after local anesthetics (MDA-231); assay type: cell-based, human; settings: MDA-231, GFP-membrane; Lidocaine 50 mM, Tetracaine 2.5 mM; with or without LA
Experimental: (§5) Cells were then suspended in DMEM culture media with or without […] Latrunculin-A (LA) to induce protrusions by depolymerizing actin. […] Bars represent mean+S.D. of at least three blindly counted experiments.

Bt-474 = assay: GFP-membrane protrusion counts after local anesthetics (Bt-474); assay type: cell-based, human; settings: Bt-474, GFP-membrane; Lidocaine 50 mM, Tetracaine 2.5 mM; with or without LA
Experimental: as §5

metastasis = settings: known, via unclear mechanism; cited from earlier work

CCCCCC[C@@H]([C@@H](C)O)n1cnc2c(N)ncnc21 (racemic) [EHNA]
protrusions (MCF10A cells [1]): reduced protrusions, but these results were not statistically significant

COC[C@@H]([C@H](O)[C@H](O)C(=O)NCC[C@H](C)c1nc(/C=C/C[C@@H]2O[C@]3(C[C@@H](O)[C@@H]2C)O[C@H]([C@H](C[C@H](O)[C@H](C)[C@H](O)[C@H](C)/C=C(C)/C(C)=C/C=C/C(C)=C\C#N)OC)[C@H](OP(=O)(O)O)C3(C)C)co1)N(C)C [Calyculin-A]
microtentacles (microtentacles): reduce microtentacles significantly | microtentacles (microtentacles; listed as calyculin-A): reduces microtentacles

COc1cc2c(c(OC)c1OC)-c1ccc(OC)c(=O)cc1[C@@H](NC(C)=O)CC2 [Colchicine]
protrusions (EpH4 cells): prevented protrusions | cell-cell attachment (clustering) (EpH4-Bcl2 cells [2]): prevented efficient clustering | protrusions (MCF10A cells [3]): prevented protrusions | protrusions [4]: inhibited | attachment of cells to tissue culture surfaces (EpH4-Bcl2 cells [5]): significantly delayed attachment | cell-surface attachment to uncoated or laminin-coated plates (XTT) (EpH4-Bcl2 cells [5]; EpH4-Bcl2 suspended one hour, LA 5 μM, Colchicine 1 μM): significantly prevents initial cell attachment

CCN(CC)CC(=O)Nc1c(C)cccc1C [Lidocaine]
protrusions (MDA-231): inhibited significantly | protrusions (Bt-474): inhibited significantly | metastasis (metastasis): reduce metastasis

C=C1[C@@H](O)[C@@H]2O[C@]3(CC[C@H](/C=C/[C@@H](C)[C@@H]4CC(C)=C[C@@]5(O[C@H](C[C@@](C)(O)C(=O)O)CC[C@H]5O)O4)O3)CC[C@H]2O[C@@H]1[C@@H](O)C[C@H](C)[C@H]1O[C@@]2(CCCCO2)CC[C@H]1C [Okadaic acid]
microtentacles (microtentacles): reduce microtentacles significantly | microtentacles (microtentacles; listed as okadaic acid): reduces microtentacles

N[C@@H](CSC(c1ccccc1)(c1ccccc1)c1ccccc1)C(=O)O [S-Trityl-L-Cysteine]
protrusions (MCF10A cells [1]): significantly reduces protrusions

CN[C@H]1CCc2cc(OC)c(OC)c(OC)c2-c2ccc(OC)c(=O)cc21 [colcemid]
protrusions [4]: inhibited

COc1ccc(CNc2nc(NCc3ccc(OC)cc3)c3ncn(C(C)C)c3n2)cc1 [myoseverin]
protrusions [4]: inhibited

COC(=O)Nc1nc2ccc(C(=O)c3cccs3)cc2[nH]1 [nocodazole]
cell-cell attachment (clustering) (EpH4-Bcl2 cells [2]): prevented efficient clustering | protrusions [4]: inhibited | attachment of cells to tissue culture surfaces (EpH4-Bcl2 cells [5]): significantly delayed attachment

[Na+].[Na+].[Na+].[O]=[V]([O-])([O-])[O-] [sodium orthovanadate]
protrusions (MCF10A cells [1]): significantly reduces protrusions

CC[C@]1(O)C[C@@H]2CN(CCc3c([nH]c4ccccc34)[C@@](C(=O)OC)(c3cc4c(cc3OC)N(C)[C@H]3[C@@](O)(C(=O)OC)[C@H](OC(C)=O)[C@]5(CC)C=CCN6CC[C@]43[C@@H]65)C2)C1 [vinblastine]
cell-cell attachment (clustering) (EpH4-Bcl2 cells [2]): prevented efficient clustering | protrusions [4]: inhibited | attachment of cells to tissue culture surfaces (EpH4-Bcl2 cells [5]): significantly delayed attachment

CC[C@]1(O)C[C@H]2CN(CCc3c([nH]c4ccccc34)[C@@](C(=O)OC)(c3cc4c(cc3OC)N(C=O)[C@H]3[C@@](O)(C(=O)OC)[C@H](OC(C)=O)[C@]5(CC)C=CCN6CC[C@]43[C@@H]65)C2)C1 [vincristine]
protrusions [4]: inhibited
